Experimental data as given in PMC11015057 (ACS Infectious Diseases, 2024).
In brackets after ≈: the same amount, converted by molar mass. Like-named read-outs stand apart in the source and are kept apart here.

Columns and labels:
[1] = system: E. coli TOP10 (GyrA^WT, ParC^WT); assay: microbe, parasite or virus in culture; assay type: cell-based; details: Escherichia coli
[2] = system: E. coli TOP10-3 (GyrA^P35L, ParC^D79N); assay: MIC, antibacterial susceptibility (CLSI); assay type: cell-based; details: Escherichia coli
[3] = system: uropathogens, including Escherichia coli; details: cited from earlier work

O=c1ccc2ncc(=O)n3c2n1C[C@H]3CN1CCC(NCc2cc3c(cn2)OCCC3)CC1 [gepotidacin]
MIC [1]: 0.125 µg/mL (≈ 0.279 µM) | MIC [2]: 16 µg/mL (≈ 35.7 µM) | clinical efficacy versus nitrofurantoin ([3]; EAGLE-3 phase III trial): demonstrated statistically significant superiority versus nitrofurantoin | clinical efficacy versus nitrofurantoin ([3]; phase III trials, patients with confirmed uncomplicated urinary tract infection and uropathogen susceptible to nitrofurantoin): demonstrated noninferiority to nitrofurantoin
